The target in the experiment is T1, human GPR119 (hGPR119) (Homo sapiens, UniProt Q8TDV5).
T1 construct: expressed in transfected cells
T1 sequence (Q8TDV5 1-335): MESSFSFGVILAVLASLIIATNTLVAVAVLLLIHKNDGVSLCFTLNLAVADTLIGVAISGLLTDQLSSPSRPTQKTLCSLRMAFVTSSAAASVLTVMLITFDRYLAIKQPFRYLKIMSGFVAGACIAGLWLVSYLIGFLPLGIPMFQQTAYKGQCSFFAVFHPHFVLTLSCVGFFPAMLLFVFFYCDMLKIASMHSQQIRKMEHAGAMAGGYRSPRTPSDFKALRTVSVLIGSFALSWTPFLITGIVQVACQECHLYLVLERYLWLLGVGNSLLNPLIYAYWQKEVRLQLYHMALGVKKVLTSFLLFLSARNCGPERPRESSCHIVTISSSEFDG
Description: cAMP accumulation assay (cAMP Gs dynamic HTRF kit). The format is cell-based. Particulars: CHO-K1 cells stably expressing hGPR119, 4-parameter fit; for Emax: 1 h, % activity normalized to Max/Min controls; for EC50: cAMP accumulation. Here is the method:
CHO-K1 cells stably expressing human GPR119 (hGPR119) were prepared by transfection of a GPR119-carrying plasmid using Lipofectamine 2000 (following manufacturer instructions). A stable cell line was established using the limiting dilution method with geneticine selection. Assay-ready frozen (ARF) cells were prepared and used throughout the study.
The assay was performed in a 384-well plate format using the cAMP Gs dynamic assay kit from Cisbio. ARF cells expressing hGPR119 were thawed, washed and then resuspended in cAMP stimulation buffer at a cell density of 1.1×10^6 cells/mL. Cells were plated at a density of ˜10,000 cells/well (9 μL/well). Dose response curves for the tested compounds were prepared in a cAMP stimulation buffer, containing 0.1% Tween 80 at 4 fold the final concentration. The compounds were then transferred to the cell plates using BRAVO (3 μL/well) and the plates were incubated for 60 minutes at 37° C./5% CO2. Detection buffer (10 μL, prepared as described in the cAMP Gs dynamic kit) were added to each well, and the plates were incubated at ambient temperature for 1 hr.
RT-FRET was measured using a ClarioSTAR plate reader, calculating the ratio between emissions at 665 nm and 620 nm (HTRF ratio). The HTRF ratio for positive (Max) and negative (Min) controls were used to normalize HTRF data and generate values for % activity. EC50 and Max activity values were determined using a standard 4-parameter fit.
For orientation: Cyclic AMP is a second messenger, typically raised through Gs and lowered through Gi signalling.

Molecules are shown by their SMILES.

What is called Emax is the maximal effect, on the per cent scale that the assay sets. The EC50 is the midpoint of the concentration-response curve. The low end stands for greater potency, the high end for weaker potency.

In turn, `O=C(Cc1c(F)cc(OCCCC2CCN(c3ncc(Cl)cn3)CC2)cc1F)N1CC[C@@H](CNC[C@H](O)[C@@H](O)[C@H](O)[C@H](O)CO)C1` [Example 132, 2-[4-[3-[1-(5-chloropyrimidin-2-yl)-4-piperidyl]propoxy]-2,6-difluoro-phenyl]-1-[(3S)-3-[[[(2S,3R,4R,5R)-2,3,4,5,6-pentahydroxyhexyl]amino]methyl]pyrrolidin-1-yl]ethanone] came in with an Emax of 100 to 130% and an EC50 of at most 100 nM.

On to `O=C(Cc1ccc(OCCCC2CCN(c3ncc(Cl)cn3)CC2)cc1F)N1CC(CNC[C@H](O)[C@H](O)[C@H](O)CO)C1` [Example 165, 2-[4-[3-[1-(5-chloropyrimidin-2-yl)-4-piperidyl]propoxy]-2-fluoro-phenyl]-1-[3-[[[(2S,3S,4R)-2,3,4,5-tetrahydroxypentyl]amino]methyl]azetidin-1-yl]ethanone], for which the Emax was 100 to 130% and the EC50 is at most 100 nM.

In the case of `O=C(Cc1ccc(OCCCC2CCN(c3ncc(Cl)cn3)CC2)cc1F)NCCCCC(=O)NC(CO)CO` [Example 23, 5-[[2-[4-[3-[1-(5-chloropyrimidin-2-yl)-4-piperidyl]propoxy]-2-fluoro-phenyl]acetyl]amino]-N-[2-hydroxy-1-(hydroxymethyl)ethyl]pentanamide], the Emax was at least 130% and the EC50 fell in the range of 100 to 1000 nM.

`CCOc1cnc(N2CCC(CCCOc3ccc(CC(=O)N4CC[C@@H](CNC(CO)(CO)CO)C4)c(F)c3)CC2)nc1` [Example 152, 2-[4-[3-[1-(5-ethoxypyrimidin-2-yl)-4-piperidyl]propoxy]-2-fluoro-phenyl]-1-[(3S)-3-[[[2-hydroxy-1,1-bis(hydroxymethyl)ethyl]amino]methyl]pyrrolidin-1-yl]ethanone] showed an Emax of at least 130% and an EC50 of at most 100 nM.

The compound `O=C(Cc1ccc(OCCCC2CCN(c3ncc(Cl)cn3)CC2)cc1F)N1CC[C@H](CNC[C@H](O)[C@@H](O)[C@H](O)[C@H](O)CO)C1` [Example 100, 2-[4-[3-[1-(5-chloropyrimidin-2-yl)-4-piperidyl]propoxy]-2-fluoro-phenyl]-1-[(3R)-3-[[[(2S,3R,4R,5R)-2,3,4,5,6-pentahydroxyhexyl]amino]methyl]pyrrolidin-1-yl]ethanone] returned an Emax of 100 to 130% and an EC50 of at most 100 nM.

Compound `CC[N+](CC)(CC)CCCCCNC(=O)Cc1ccc(OCCCC2CCN(c3ncc(Cl)cn3)CC2)cc1F` [Example 2, 5-[[2-[4-[3-[1-(5-chloropyrimidin-2-yl)-4-piperidyl]propoxy]-2-fluoro-phenyl]acetyl]amino]pentyl-triethyl-ammonium] returned an Emax of at least 130% and a concentration for a half-maximal effect (EC50) of 100 to 1000 nM.

The compound `O=C(Cc1ccc(OCCCC2CCN(c3ncc(Cl)cn3)CC2)cc1F)N1CCC(O)(CNCC(CO)(CO)CO)CC1` [Example 183, 2-[4-[3-[1-(5-chloropyrimidin-2-yl)-4-piperidyl]propoxy]-2-fluoro-phenyl]-1-[4-hydroxy-4-[[[3-hydroxy-2,2-bis (hydroxymethyl)propyl]amino]methyl]-1-piperidyl]ethanone] displayed an Emax of 100 to 130% and a concentration giving a half-maximal response (EC50) of at most 100 nM.

As to `CC(C)OC(=O)N1CCC2(CC1)CC(CCOc1ccc(CC(=O)N3CC(CNC[C@H](O)[C@@H](O)[C@H](O)[C@H](O)CO)C3)c(F)c1)C2` [Example 118, isopropyl 2-[2-[3-fluoro-4-[2-oxo-2-[3-[[[(2S,3R,4R,5R)-2,3,4,5,6-pentahydroxyhexyl]amino]methyl]azetidin-1-yl]ethyl]phenoxy]ethyl]-7-azaspiro[3.5]nonane-7-carboxylate], the Emax fell in the range of 100 to 130% and the EC50 fell in the range of 100 to 1000 nM.

In turn, `O=C(Cc1c(F)cc(OCCCC2CCN(C(=O)OC3(C(F)(F)F)COC3)CC2)cc1F)N1CC(CNC[C@H](O)[C@@H](O)[C@H](O)[C@H](O)CO)C1` [Example 126, [3-(trifluoromethyl)oxetan-3-yl] 4-[3-[3,5-difluoro-4-[2-oxo-2-[3-[[[(2S,3R,4R,5R)-2,3,4,5,6-pentahydroxyhexyl]amino]methyl]azetidin-1-yl]ethyl]phenoxy]propyl] piperidine-1-carboxylate] displayed an Emax of 100 to 130% and an EC50 of 100 to 1000 nM.

The compound `CCc1cnc(N2CCC(CCCOc3cc(F)c(CC(=O)NC(CO)(CO)CO)c(F)c3)CC2)nc1` [Example 7, 2-[4-[3-[1-(5-ethylpyrimidin-2-yl)-4-piperidyl]propoxy]-2,6-difluoro-phenyl]-N-[2-hydroxy-1,1-bis(hydroxymethyl)ethyl]acetamide] displayed an Emax of 100 to 130% and an EC50 of at most 100 nM.

`O=C(Cc1c(F)cc(OCCCC2CCN(c3ncc(Cl)cn3)CC2)cc1F)N1CC[C@@H](CNC(CO)(CO)CO)C1` [Example 149, 2-[4-[3-[1-(5-chloropyrimidin-2-yl)-4-piperidyl]propoxy]-2,6-difluoro-phenyl]-1-[(3S)-3-[[[2-hydroxy-1,1-bis(hydroxymethyl)ethyl]amino]methyl]pyrrolidin-1-yl]ethanone] gave an Emax of at least 130% and an EC50 of at most 100 nM.

Take `CCc1cnc(N2CCC(CCCOc3ccc(CC(=O)N4CC(CNCC(CO)CO)C4)c(F)c3)CC2)nc1` [Example 62, 2-(4-(3-(1-(5-ethylpyrimidin-2-yl)piperidin-4-yl)propoxy)-2-fluorophenyl)-1-(3-(((3-hydroxy-2-(hydroxymethyl)propyl)amino)methyl)azetidin-1-yl)ethan-1-one]: the Emax is at least 130% and the EC50 was 100 to 1000 nM.

As for `O=C(Cc1ccc(OCCCC2CCN(c3ncc(Cl)cn3)CC2)cc1F)N1CC(CN2C[C@@H](O)[C@@H](O)[C@@H](O)C2)C1` [Example 50, 2-[4-[3-[1-(5-chloropyrimidin-2-yl)-4-piperidyl]propoxy]-2-fluoro-phenyl]-1-[3-[[rac-(3R,5S)-3,4,5-trihydroxy-1-piperidyl]methyl]azetidin-1-yl]ethanone], the Emax fell in the range of 100 to 130% and the EC50 was at most 100 nM.

Consider `O=C(Cc1ccc(COCCCC2CCN(c3ncc(Cl)cn3)CC2)cc1F)N1CC(CNC[C@H](O)[C@@H](O)[C@H](O)[C@H](O)CO)C1` [Example 90, 2-[4-[3-[1-(5-chloropyrimidin-2-yl)-4-piperidyl]propoxymethyl]-2-fluoro-phenyl]-1-[3-[[[(2S,3R,4R,5R)-2,3,4,5,6-pentahydroxyhexyl]amino]methyl]azetidin-1-yl]ethanone], for which the Emax lay within 50 to 100% and the EC50 lay within 100 to 1000 nM.

Take `O=C(NCCS(=O)(=O)O)C1CN(C(=O)Cc2ccc(OCCCC3CCN(c4ncc(Cl)cn4)CC3)cc2F)C1` [Example 171, 2-[[1-[2-[4-[3-[1-(5-chloropyrimidin-2-yl)-4-piperidyl]propoxy]-2-fluoro-phenyl]acetyl]azetidine-3-carbonyl]amino]ethanesulfonic acid]: the Emax was 100 to 130% and the EC50 lay within 100 to 1000 nM.

`O=C(Cc1ccc(OCCCC2CCN(c3ncc(Cl)cn3)CC2)cc1F)N1CC[C@H](CNC[C@H](O)[C@H](O)[C@H](O)CO)C1` [Example 168, 2-[4-[3-[1-(5-chloropyrimidin-2-yl)-4-piperidyl]propoxy]-2-fluoro-phenyl]-1-[(3R)-3-[[[(2S,3S,4R)-2,3,4,5-tetrahydroxypentyl]amino]methyl]pyrrolidin-1-yl]ethanone] came in with an Emax of 100 to 130% and an EC50 of at most 100 nM.

Compound `O=C(Cc1c(F)cc(OCCCCC2CCN(c3ncc(Cl)cn3)CC2)cc1F)N1CC(CNC[C@H](O)[C@@H](O)[C@H](O)[C@H](O)CO)C1` [Example 55, 2-(4-(4-(1-(5-chloropyrimidin-2-yl)piperidin-4-yl)butoxy)-2,6-difluorophenyl)-1-(3-((((2S,3R,4R,5R)-2,3,4,5,6-pentahydroxyhexyl)amino)methyl)azetidin-1-yl)ethan-1-one] displayed a maximal response (Emax) of at least 130% and an EC50 of 100 to 1000 nM.

Regarding `O=C(CC1CN(C(=O)Cc2ccc(OCCCC3CCN(c4ncc(Cl)cn4)CC3)cc2F)C1)NCC(O)(CO)CO` [Example 33, 2-[1-[2-[4-[3-[1-(5-chloropyrimidin-2-yl)-4-piperidyl]propoxy]-2-fluoro-phenyl]acetyl]azetidin-3-yl]-N-[2,3-dihydroxy-2-(hydroxymethyl)propyl]acetamide], the Emax is at least 130% and the EC50 was 100 to 1000 nM.

Compound `COC(=O)c1cnc(N2CCC(CCCOc3ccc(CC(=O)N4CC(CNC[C@H](O)[C@@H](O)[C@H](O)[C@H](O)CO)C4)c(F)c3)CC2)nc1` [Example 87, methyl 2-[4-[3-[3-fluoro-4-[2-oxo-2-[3-[[[(2S,3R,4R,5R)-2,3,4,5,6-pentahydroxyhexyl]amino]methyl]azetidin-1-yl]ethyl]phenoxy]propyl]-1-piperidyl]pyrimidine-5-carboxylate] had an Emax of 100 to 130% and an EC50 of 100 to 1000 nM.
